These results are taken from US7833940B2, “2-(substituted phenyl)-6-hydroxy or alkoxy-5-substituted-4-pyrimidinecarboxylates and their use as herbicides” (Dow AgroSciences LLC, priority 2008, dated 2010).

The subject of data set [1] is Common Sunflower (Helianthus annuus). The data set can be described thus: General postemergence herbicidal activity, HELAN. The data set is classed as in vivo. The conditions noted are these: post-emergent, 280 g ai/ha, visual score after 14 days (0 = no injury, 100 = complete kill). The procedure: (§1) Seeds or nutlets of the desired test plant species were planted in Sun Gro MetroMix® 306 planting mixture, which typically has a pH of 6.0 to 6.8 and an organic matter content of about 30 percent, in plastic pots with a surface area of 64 square centimeters. When required to ensure good germination and healthy plants, a fungicide treatment and/or other chemical or physical treatment was applied. The plants were grown for 7-21 days in a greenhouse with an approximate 15 hour photoperiod which was maintained at about 23-29° C. during the day and 22-28° C. during the night. Nutrients and water were added on a regular basis and supplemental lighting was provided with overhead metal halide 1000-Watt lamps as necessary. The plants were employed for testing when they reached the first or second true leaf stage.
(§2) A weighed amount, determined by the highest rate to be tested, of each test compound was dissolved in 4 mL of a 97:3 v/v (volume/volume) mixture of acetone and dimethyl sulfoxide (DMSO) to obtain concentrated stock solutions. […] The concentrated stock solutions obtained were diluted with 20 mL of an aqueous mixture containing acetone, water, isopropyl alcohol, DMSO, Atplus 411F crop oil concentrate, and Triton® X-155 surfactant in a 48.5:39:10:1.5:1.0:0.02 v/v ratio to obtain spray solutions containing the highest application rates. […]
(§3) The treated plants and control plants were placed in a greenhouse as described above and watered by sub-irrigation to prevent wash-off of the test compounds. After 14 days, the condition of the test plants as compared with that of the untreated plants was determined visually and scored on a scale of 0 to 100 percent where 0 corresponds to no injury and 100 corresponds to complete kill.

The test system of data set [2] is Lambsquarters (Chenopodium album). The data set can be described thus: General postemergence herbicidal activity, CHEAL. The conditions noted are these: post-emergent, 280 g ai/ha, visual score after 14 days (0 = no injury, 100 = complete kill). The data set is classed as in vivo. The procedure:
as §1, §2, §3

The test system of data set [3] is Wild Pointsettia (Euphorbia heterophylla). The data set can be described thus: General postemergence herbicidal activity, EPHHL. The data set is classed as in vivo. The conditions noted are these: post-emergent, 280 g ai/ha, visual score after 14 days (0 = no injury, 100 = complete kill). As to the method: as §1, §2, §3
For data set [4], the system named is Redroot Pigweed (Amatanthus retroflexus). As to the kind of experiment: General postemergence herbicidal activity, AMARE. The data set is classed as in vivo. The conditions noted are these: post-emergent, 280 g ai/ha, visual score after 14 days (0 = no injury, 100 = complete kill). The procedure: as §1, §2, §3

Usually melting point stands for the temperature of the solid-liquid transition. As to `COC(=O)c1nc(-c2ccc(Cl)c(OC)c2F)nc(O)c1OC` [Compound 3, 6-hydroxy-2-(4-chloro-2-fluoro-3-methoxyphenyl)-5-methoxypyrimidine-4-carboxylic acid methyl ester], the melting point fell in the range of 177 to 179 °C. Besides, the “% Growth Reduction HELAN” value in data set [1] worked out at 10%. Moreover, the “% Growth Reduction CHEAL” value in data set [2] stood at 90%. In addition, the “% Growth Reduction EPHHL” value in data set [3] was determined as 100%. Also, the “% Growth Reduction AMARE” value in data set [4] came out at 40%.

In the case of `COC(=O)c1nc(-c2ccc(Cl)c(OC)c2F)nc(O)c1Br` [Compound 2, 6-hydroxy-2-(4-chloro-2-fluoro-3-methoxyphenyl)-5-bromopyrimidine-4-carboxylic acid methyl ester], the melting point was in the range of 192 to 195 °C. For the same compound, the “% Growth Reduction HELAN” value in data set [1] was 85%. Besides, in data set [2], the “% Growth Reduction CHEAL” value is listed as 95%. The “% Growth Reduction EPHHL” value in data set [3] is on record as 100%. The “% Growth Reduction AMARE” value in data set [4] amounted to 100%.

`COC(=O)c1nc(-c2ccc(Cl)c(OC)c2F)nc(O)c1Cl` [Compound 1, 6-hydroxy-2-(4-chloro-2-fluoro-3-methoxyphenyl)-5-chloropyrimidine-4-carboxylic acid methyl ester] returned a melting point of 215 to 217 °C. Also, the “% Growth Reduction HELAN” value in data set [1] is listed as 90%. Also, the “% Growth Reduction CHEAL” value in data set [2] was determined as 100%. The “% Growth Reduction EPHHL” value in data set [3] was 100%. Further, the “% Growth Reduction AMARE” value in data set [4] stood at 100%.
